Experimental data reported in PubChem BioAssay AID256 (DTP/NCI, 2004).
Where “and” joins values, the source holds several entries; their conditions need not be identical. Identical values can stand only once. Inconclusive results and toxic doses are left out.

System: CD2F1 mice, L1210 leukemia ip, survival T/C
Experiment: NCI In Vivo Anticancer Drug Screen. Data for tumor model L1210 Leukemia (intraperitoneal) in CD2F1 (CDF1) mice
Conditions: higher = longer survival
How it was run: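 Tumor-bearing mice (transplanted tumor) were split into treated and vehicle control groups, and the measured endpoint of each treated group was divided by that of its vehicle controls.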

[1] = endpoint: mean survival time, dose: 50.0 mg/kg/injection, schedule: Q01DX009 (ip), vehicle: saline with Tween-80
[2] = endpoint: mean survival time, dose: 100.0 mg/kg/injection, schedule: Q01DX009 (ip), vehicle: saline with Tween-80
[3] = endpoint: mean survival time, dose: 200.0 mg/kg/injection, schedule: Q01DX009 (ip), vehicle: saline with Tween-80
[4] = endpoint: mean survival time, dose: 25.0 mg/kg/injection, schedule: Q01DX009 (ip), vehicle: saline with Tween-80
[5] = endpoint: mean survival time, dose: 200.0 mg/kg/injection, schedule: Q04DX003 (ip), vehicle: saline
[6] = endpoint: mean survival time, dose: 100.0 mg/kg/injection, schedule: Q04DX003 (ip), vehicle: saline
[7] = endpoint: mean survival time, dose: 400.0 mg/kg/injection, schedule: Q04DX003 (ip), vehicle: saline
[8] = endpoint: mean survival time, dose: 100.0 mg/kg/injection, schedule: Q04DX003 (ip), vehicle: saline with Tween-80
[9] = endpoint: mean survival time, dose: 200.0 mg/kg/injection, schedule: Q04DX003 (ip), vehicle: saline with Tween-80
[10] = endpoint: mean survival time, dose: 400.0 mg/kg/injection, schedule: Q04DX003 (ip), vehicle: saline with Tween-80
[11] = endpoint: mean survival time, dose: 400.0 mg/kg/injection, schedule: Q01DX009 (ip), vehicle: saline with Tween-80

Compound: COc1ccc(CNCCO)cc1
- T/C [1]: 96 % of control
- T/C [2]: 102 % of control
- T/C [3]: 98 % of control

Compound: COP12(OCCO1)SC(C(F)(F)F)=C(C(F)(F)F)S2
- T/C (endpoint: mean survival time, dose: 12.5 mg/kg/injection, schedule: Q01DX009 (ip), vehicle: saline with Tween-80): 102 % of control and 109 % of control
- T/C [4]: 96 % of control and 101 % of control
- T/C [1]: 100 % of control

Compound: CC1(C)N=C(N)N=C(N)N1c1ccc(OCc2ccc(C(=O)Nc3cccc(S(=O)(=O)F)c3)cc2)c(Cl)c1
- T/C [5]: 104 % of control

Compound: CC[Si](CC)(CC)c1ccc(CCNCCS)s1
- T/C (endpoint: mean survival time, dose: 37.5 mg/kg/injection, schedule: Q01DX009 (ip), vehicle: saline): 107 % of control
- T/C (endpoint: mean survival time, dose: 75.0 mg/kg/injection, schedule: Q01DX009 (ip), vehicle: saline): 101 % of control

Compound: COC(=O)C12CCC1(Cl)CC2 (stereo unspecified)
- T/C [6]: 98 % of control
- T/C [5]: 93 % of control
- T/C [7]: 96 % of control

Compound: Cc1ccc2c(ccc3nc(N)nc(N)c32)c1
- T/C (endpoint: mean survival time, dose: 5.0 mg/kg/injection, schedule: Q01DX001 (ip), vehicle: saline): 100 % of control
- T/C (endpoint: mean survival time, dose: 10.0 mg/kg/injection, schedule: Q01DX001 (ip), vehicle: saline): 89 % of control
- T/C (endpoint: mean survival time, dose: 20.0 mg/kg/injection, schedule: Q01DX001 (ip), vehicle: saline): 95 % of control
- T/C (endpoint: mean survival time, dose: 40.0 mg/kg/injection, schedule: Q01DX001 (ip), vehicle: saline): 95 % of control

Compound: COc1cc(O)cc(OC)c1
- T/C (endpoint: mean survival time, dose: 25.0 mg/kg/injection, schedule: Q04DX003 (ip), vehicle: saline): 103 % of control
- T/C (endpoint: mean survival time, dose: 50.0 mg/kg/injection, schedule: Q04DX003 (ip), vehicle: saline): 102 % of control
- T/C [6]: 100 % of control

Compound: CC(C)c1cc(C(C)(C)C)c(O)c(C(C)(C)C)c1
- T/C (endpoint: mean survival time, dose: 25.0 mg/kg/injection, schedule: Q01DX009 (ip), vehicle: Klucel (hydroxypropylcellulose) (HPC)): 94 % of control
- T/C (endpoint: mean survival time, dose: 50.0 mg/kg/injection, schedule: Q01DX009 (ip), vehicle: Klucel (hydroxypropylcellulose) (HPC)): 102 % of control
- T/C (endpoint: mean survival time, dose: 100.0 mg/kg/injection, schedule: Q01DX009 (ip), vehicle: Klucel (hydroxypropylcellulose) (HPC)): 98 % of control

Compound: O=CNCCN(C=O)CCO
- T/C (endpoint: mean survival time, dose: 100.0 mg/kg/injection, schedule: Q01DX009 (ip), vehicle: saline): 97 % of control
- T/C (endpoint: mean survival time, dose: 200.0 mg/kg/injection, schedule: Q01DX009 (ip), vehicle: saline): 104 % of control
- T/C (endpoint: mean survival time, dose: 400.0 mg/kg/injection, schedule: Q01DX009 (ip), vehicle: saline): 98 % of control

Compound: CC[C@@]1(OC(=O)CN2CCNCC2)C(=O)OCc2c1cc1n(c2=O)Cc2cc3ccccc3nc2-1
- T/C (endpoint: median survival time, dose: 6.25 mg/kg/injection, schedule: Q04DX002 (ip), vehicle: water): 106 % of control
- T/C (endpoint: median survival time, dose: 12.5 mg/kg/injection, schedule: Q04DX002 (ip), vehicle: water): 116 % of control
- T/C (endpoint: median survival time, dose: 50.0 mg/kg/injection, schedule: Q04DX002 (ip), vehicle: water): 153 % of control and 170 % of control
- T/C (endpoint: median survival time, dose: 100.0 mg/kg/injection, schedule: Q04DX002 (ip), vehicle: water): 268 % of control

Compound: NC(=O)CCC(NC(=O)c1cnc2ccccc2n1)C(=O)O (stereo unspecified)
- T/C (endpoint: mean survival time, dose: 100.0 mg/kg/injection, schedule: Q01DX001 (ip), vehicle: saline): 97 % of control
- T/C [6]: 105 % of control
- T/C (endpoint: mean survival time, dose: 200.0 mg/kg/injection, schedule: Q01DX001 (ip), vehicle: saline): 97 % of control
- T/C [5]: 100 % of control
- T/C (endpoint: mean survival time, dose: 400.0 mg/kg/injection, schedule: Q01DX001 (ip), vehicle: saline): 95 % of control
- T/C [7]: 102 % of control

Compound: ClC1(Cl)OC(Cl)(Cl)C(Cl)(Cl)OC1(Cl)Cl
- T/C (endpoint: mean survival time, dose: 50.0 mg/kg/injection, schedule: Q04DX003 (ip), vehicle: other): 95 % of control
- T/C (endpoint: mean survival time, dose: 100.0 mg/kg/injection, schedule: Q04DX003 (ip), vehicle: other): 91 % of control
- T/C (endpoint: mean survival time, dose: 200.0 mg/kg/injection, schedule: Q04DX003 (ip), vehicle: other): 97 % of control

Compound: O=C(Nc1ccccc1C(F)(F)F)c1cccc(Cl)c1
- T/C (endpoint: mean survival time, dose: 100.0 mg/kg/injection, schedule: Q01DX009 (ip), vehicle: saline + alcohol): 90 % of control
- T/C (endpoint: mean survival time, dose: 100.0 mg/kg/injection, schedule: Q04DX003 (ip), vehicle: saline + alcohol): 97 % of control
- T/C (endpoint: mean survival time, dose: 200.0 mg/kg/injection, schedule: Q01DX009 (ip), vehicle: saline + alcohol): 93 % of control
- T/C (endpoint: mean survival time, dose: 200.0 mg/kg/injection, schedule: Q04DX003 (ip), vehicle: saline + alcohol): 100 % of control
- T/C (endpoint: mean survival time, dose: 400.0 mg/kg/injection, schedule: Q01DX009 (ip), vehicle: saline + alcohol): 96 % of control
- T/C (endpoint: mean survival time, dose: 400.0 mg/kg/injection, schedule: Q04DX003 (ip), vehicle: saline + alcohol): 95 % of control

Compound: [Co].[NH-]CC[NH-].[NH-]CC[NH-].[NH-]CC[S-]
- T/C (endpoint: mean survival time, dose: 100.0 mg/kg/injection, schedule: Q04DX002 (ip), vehicle: saline): 112 % of control
- T/C (endpoint: mean survival time, dose: 200.0 mg/kg/injection, schedule: Q04DX002 (ip), vehicle: saline): 101 % of control
- T/C (endpoint: mean survival time, dose: 400.0 mg/kg/injection, schedule: Q04DX002 (ip), vehicle: saline): 104 % of control

Compound: COc1ccccc1OC(=O)Nc1cc([N+](=O)[O-])ccc1C
- T/C [8]: 89 % of control
- T/C [9]: 97 % of control
- T/C [10]: 87 % of control

Compound: O=C(O)C(=O)O.[NH-]C1CCCC1[NH-].[Pt+2] (stereo unspecified)
- T/C (endpoint: mean survival time, dose: 1.25 mg/kg/injection, schedule: Q04DX003 (ip), vehicle: other): 104 % of control
- T/C (endpoint: mean survival time, dose: 2.5 mg/kg/injection, schedule: Q04DX003 (ip), vehicle: other): 114 % of control
- T/C (endpoint: mean survival time, dose: 5.0 mg/kg/injection, schedule: Q04DX003 (ip), vehicle: other): 115 % of control
- T/C (endpoint: mean survival time, dose: 10.0 mg/kg/injection, schedule: Q04DX003 (ip), vehicle: other): 106 % of control

Compound: COc1ccccc1[As](=O)(O)CC(O)COc1ccc(Cl)cc1Cl (stereo unspecified)
- T/C (endpoint: mean survival time, dose: 6.25 mg/kg/injection, schedule: Q04DX003 (ip), vehicle: saline): 98 % of control
- T/C (endpoint: mean survival time, dose: 12.5 mg/kg/injection, schedule: Q04DX003 (ip), vehicle: saline): 96 % of control

Compound: Clc1cccc(Cl)c1C(Cl)Cl
- T/C [2]: 98 % of control
- T/C [3]: 98 % of control
- T/C [11]: 98 % of control

Compound: CC(=O)N(N)c1ccccc1
- T/C (endpoint: mean survival time, dose: 100.0 mg/kg/injection, schedule: Q01DX001 (ip), vehicle: saline with Tween-80): 105 % of control
- T/C (endpoint: mean survival time, dose: 200.0 mg/kg/injection, schedule: Q01DX001 (ip), vehicle: saline with Tween-80): 109 % of control
- T/C (endpoint: mean survival time, dose: 400.0 mg/kg/injection, schedule: Q01DX001 (ip), vehicle: saline with Tween-80): 105 % of control

Compound: Cc1ccc(C(=O)CCCCl)cc1C
- T/C [2]: 104 % of control
- T/C [3]: 96 % of control
- T/C [11]: 98 % of control

Compound: Brc1ccccc1C=C1c2ccccc2-c2ccccc21
- T/C [2]: 100 % of control
- T/C [3]: 102 % of control
- T/C [11]: 106 % of control

Compound: CCOC(=O)N(N=O)c1ccc2c(c1)C(=O)c1ccccc1-2
- T/C (endpoint: mean survival time, dose: 100.0 mg/kg/injection, schedule: Q01DX001 (ip), vehicle: carboxymethylcellulose (CMC)): 103 % of control
- T/C (endpoint: mean survival time, dose: 200.0 mg/kg/injection, schedule: Q01DX001 (ip), vehicle: carboxymethylcellulose (CMC)): 97 % of control
- T/C (endpoint: mean survival time, dose: 400.0 mg/kg/injection, schedule: Q01DX001 (ip), vehicle: carboxymethylcellulose (CMC)): 94 % of control

Compound: COc1cc(/C=C2/CCCCC2=O)ccc1O
- T/C (endpoint: mean survival time, dose: 100.0 mg/kg/injection, schedule: Q01DX009 (ip), vehicle: other): 104 % of control
- T/C (endpoint: mean survival time, dose: 200.0 mg/kg/injection, schedule: Q01DX009 (ip), vehicle: other): 98 % of control
- T/C (endpoint: mean survival time, dose: 400.0 mg/kg/injection, schedule: Q01DX009 (ip), vehicle: other): 98 % of control

Compound: CCOC(=O)c1c(OC)cc2n(c1=O)Cc1cc3ccccc3nc1-2
- T/C [4]: 98 % of control
- T/C [1]: 98 % of control
- T/C [2]: 101 % of control
- T/C [8]: 90 % of control

Compound: C[S+](C)CCC1NC(=O)NC1=O (stereo unspecified)
- T/C [8]: 107 % of control
- T/C [6]: 98 % of control
- T/C [9]: 102 % of control
- T/C [5]: 102 % of control
- T/C [10]: 93 % of control

Compound: CSc1ncnc2c1cnn2C1OC(CO)C(O)C1O (stereo unspecified)
- T/C (endpoint: mean survival time, dose: 12.5 mg/kg/injection, schedule: Q01DX005 (ip), vehicle: other): 93 % of control
- T/C (endpoint: mean survival time, dose: 25.0 mg/kg/injection, schedule: Q01DX005 (ip), vehicle: other): 100 % of control
- T/C (endpoint: mean survival time, dose: 50.0 mg/kg/injection, schedule: Q01DX005 (ip), vehicle: other): 105 % of control
- T/C (endpoint: mean survival time, dose: 100.0 mg/kg/injection, schedule: Q01DX005 (ip), vehicle: other): 122 % of control and 100 % of control
- T/C (endpoint: mean survival time, dose: 200.0 mg/kg/injection, schedule: Q01DX005 (ip), vehicle: other): 119 % of control and 112 % of control

Compound: CC1(C)C2CCC1(C(=O)O)C(=O)C2 (stereo unspecified)
- T/C [8]: 92 % of control
- T/C [9]: 92 % of control
- T/C [10]: 87 % of control
